{"source": "patent US7183291B2", "about": "(Council of Scientific and Industrial Research, priority 1999, dated 2007)", "key": {"[1]": {"tested_on": "P. cynomolgi B gametocytes", "test": "Gametocytocidal test: infectivity of gametocytes from treated P. cynomolgi infected Rhesus monkeys to An. stephensi mosquitoes", "format": "in vivo", "procedure": "For the gametocytocidal test, batches of 3–4 day old An. Stephensi were allowed to feed on P. cynomolgi infected Rhesus monkeys at appropriate gametocytaemia level. […] […] Mosquitoes were maintained as 26±1° C. under optimal insectary conditions. The infectivity rate and the oocyst counts were recorded on day 8. Mosquitoes were further maintained in the insectary to record the formation of sporozoites and the absence of sporozoites in some of the batches was also ensured by inoculation of mosquito homogenates into native monkeys."}, "[2]": {"test": "Methaemoglobin levels in Beagle dogs after 7-day oral treatment", "procedure": "Colony bred beagle dogs were maintained in the kennel house of the Institute and fed with a standard diet.\nTreatment was administered once daily for seven doses (day 0–6), the day of the first dose being day 0. […] 5 ml. blood was collected from beagle dogs on day 0, 3, 7, 13 and 25 using potassium-oxalate crystals as anticoagulant. All the estimations/tests were conducted on the same day of collection of blood. Methaemoglobin was assayed by the method of Evelyn and Malloy (1938, J. Biol. Chem., 126, 655–662)."}, "normal erythrocytes": {"tested_on": "normal erythrocytes", "test": "Reduced glutathione (GSH) in normal human erythrocytes after 3 h incubation", "format": "cell-based", "description": "(§1) Drug induced haemolysis is a serious complication in persons deficient in G-6-PD enzyme. The presence of reduced glutathione (GSH) in erythrocytes control the level of oxidative metabolites. Therefore, drugs, which cause lesser oxidation of GSH level are safe. […] G-6-PD deficiency was detected by the fluorescent spot screening test and confirmed by the enzyme assay method. Heparinised blood samples were collected from each individual and after centrifugation, the packed cells were washed three times with cold saline. […] GSH levels were estimated by the method of Bentler et al [Improved Method for the Determination of Blood Glutathione, J. Lab."}, "[3]": {"tested_on": "G-6-PD deficient erythrocytes", "test": "Reduced glutathione (GSH) in G-6-PD deficient human erythrocytes after 3 h incubation", "format": "cell-based", "conditions": "25 and 50 μg/ml of PQ and equivalent doses, P<0.001", "description": "as §1"}, "rodent malaria [4]": {"tested_on": "rodent malaria", "conditions": "in vivo; cited from earlier work"}, "rodent malaria [5]": {"tested_on": "rodent malaria", "conditions": "in vivo; cited from earlier work", "remark": "listed apart in the source"}, "rodent malaria [6]": {"tested_on": "rodent malaria", "conditions": "given directly to the insect; cited from earlier work"}, "[7]": {"conditions": "oral labelled primaquine; cited from earlier work"}, "[8]": {"conditions": "1.00 mg/kg at 0 hr, feeding +24 hr"}, "[9]": {"conditions": "1.00 mg/kg at 0 hr, feeding +48 hr"}, "[10]": {"conditions": "1.00 mg/kg at 0 hr, feeding −1 hr (pre-treatment)"}, "[11]": {"conditions": "3.16 mg/kg at 0 hr, feeding +24 hr"}, "[12]": {"conditions": "3.16 mg/kg at 0 hr, feeding −1 hr (pre-treatment)"}}, "note": "Where “and” joins values, the source holds several entries; their conditions need not be identical. Identical values can stand only once."}
{"smiles": "COc1cc(NC(C)CCCN)c2ncccc2c1", "note": "(stereo not drawn) [Primaquine, 8-(4-amino-1-methylbutylamino)-6-methoxy quinoline, reference compound]", "values": [{"measurement": "loss of infectivity", "setting": "[1]; 1.00 mg/kg", "value": "~98", "unit": "%"}, {"measurement": "No. of mosquitoes infected/dissected", "setting": "[1]; 1.00 mg/kg at 0 hr, feeding +5 hr", "value": "32/44 and 36/46"}, {"measurement": "No. of mosquitoes infected/dissected", "setting": "[1]; [8]", "value": "0/55 and 3/45"}, {"measurement": "Parasitaemia/mm^3 Asexual", "setting": "[1]; [8]", "value": "28048 /mm^3 and 26832 /mm^3"}, {"measurement": "% infectivity", "setting": "[1]; [9]", "value": "(0) %"}, {"measurement": "No. of mosquitoes infected/dissected", "setting": "[1]; [9]", "value": "0/40"}, {"measurement": "Parasitaemia/mm^3 Asexual", "setting": "[1]; [9]", "value": "15332 /mm^3 and 12140 /mm^3"}, {"measurement": "oocyst no. per gut (Mean ± SD)", "setting": "[1]; [9]", "value": "Nil"}, {"measurement": "No. of mosquitoes infected/dissected", "setting": "[1]; [10]", "value": "25/34 and 32/40"}, {"measurement": "Parasitaemia/mm^3 Asexual", "setting": "[1]; [10]", "value": "42394 /mm^3 and 36166 /mm^3"}, {"measurement": "No. of mosquitoes infected/dissected", "setting": "[1]; 3.16 mg/kg at 0 hr, feeding +5 hr", "value": "0/53 and 15/46"}, {"measurement": "% infectivity", "setting": "[1]; [11]", "value": "(0) %"}, {"measurement": "No. of mosquitoes infected/dissected", "setting": "[1]; [11]", "value": "0/33 and 0/43"}, {"measurement": "Parasitaemia/mm^3 Asexual", "setting": "[1]; [11]", "value": "23112 /mm^3 and 21204 /mm^3"}, {"measurement": "Parasitaemia/mm^3 Gametocytes", "setting": "[1]; [11]", "value": "749 /mm^3 and 670 /mm^3"}, {"measurement": "oocyst no. per gut (Mean ± SD)", "setting": "[1]; [11]", "value": "Nil"}, {"measurement": "No. of mosquitoes infected/dissected", "setting": "[1]; [12]", "value": "37/51 and 20/47"}, {"measurement": "Parasitaemia/mm^3 Asexual", "setting": "[1]; [12]", "value": "29680 /mm^3 and 16824 /mm^3"}, {"measurement": "Parasitaemia/mm^3 Gametocytes", "setting": "[1]; [12]", "value": "1230 /mm^3 and 1026 /mm^3"}, {"measurement": "gametocytocidal action", "setting": "[1]; 3.16 mg/kg, +24 hr", "value": "complete gametocytocidal action"}, {"measurement": "increase of mean Met-Hb values over day 0", "setting": "[2]; Group I, 1.0 mg/kg, day 7", "value": 3.7, "unit": "fold"}, {"measurement": "increase of Met-Hb over corresponding day 0 value", "setting": "[2]; Group II, 3.0 mg/kg", "value": 10.5, "unit": "fold"}, {"measurement": "concentration at which fall in GSH levels reached statistical significance", "setting": "normal erythrocytes", "value": 10000, "unit": "ng/mL"}, {"measurement": "GSH (mg %) Mean ± SE", "setting": "normal erythrocytes; dose 1.00 μg/ml", "value": "43.50 ± 5.70", "unit": "mg %"}, {"measurement": "GSH (mg %) Mean ± SE", "setting": "normal erythrocytes; dose 5.00 μg/ml", "value": "39.00 ± 6.16", "unit": "mg %"}, {"measurement": "decrease in GSH level compared to controls", "setting": "[3]", "value": "statistically significant"}, {"measurement": "blood schizontocidal activity", "setting": "rodent malaria [4]", "value": "has blood schizontocidal activities"}, {"measurement": "gametocytocidal activity", "setting": "rodent malaria [5]", "value": "very potent gametocytocidal agent"}, {"measurement": "direct sporontocidal activity", "setting": "rodent malaria [6]", "value": "quite inactive"}, {"measurement": "radioactivity found in liver tissue", "setting": "[7]", "value": 45, "unit": "%"}]}
